Assay results published in patent US4241070A, “Analgesic benzomorphan derivatives” (priority 1975, dated 1980).
Where a name gives a salt, the structure may show the parent alone. Read-outs that look alike come from different tables or passages of the source.

Key:
[1] = cited from earlier work
[2] = cited from earlier work; remark: listed apart in the source
[3] = abstinence syndrome test (body weight after drug withdrawal); details: for Abstinence syndrome: subcutaneous, twice a day, male rats, body weight decrease the day after withdrawal
Description: Groups of male rats of Wister strain (body weight, 150 g), each group
consisting of 20 male rats, were subcutaneously given the test compound
twice a day for 4 consecutive weeks. On the next day after drug
withdrawal, body weight was measured. The symbols have the following
meanings: +++, severe decrease (about 5% decrease); ++, moderate decrease
+, mild decrease; -, no decrease. A marked decrease is taken as an […]

[4] = system: typical syndrome produced by intraperitoneal injection of 0.6% aqueous acetic acid; test: writhing test (acetic acid); assay type: in vivo, mice; details: for ED50: Mus musculus
Description: The test was based on the specific antagonism of the test compound to
typical syndrome produced by intraperitoneal injection of 0.6% aqueous
acetic acid. The syndrome was characterized by intermittent contractions
of the abdomen, twisting and turning of the trunk and extension of the
hind legs. A group of 5 mice was used for each dose level. The test
compound was administered 60 minutes before the injection of acetic acid
subcutaneously (sc) or orally (po).
pain response was recorded. The ED50 value was calculated according
to the LitchfieldWilcoxen's method.

[5] = sc, subcutaneous, 60 minutes before acetic acid, mice, Litchfield-Wilcoxen, read-out: ED50 SC
[6] = oral, 60 minutes before acetic acid, mice, Litchfield-Wilcoxen, read-out: ED50 PO

CC1C2Cc3ccc(O)cc3C1(C)CCN2C (stereo not drawn) [2'-Hydroxy-2,5,9-trimethyl-6,7-benzomorphan]
addiction liability ([1]; U.S. Pat. No. 3,138,603): has an addiction liability
analgesia ([2]; U.S. Pat. No. 3,138,603): potent analgesia
Abstinence syndrome ([3]; 20 mg/kg/day for 4 weeks): ++

CC(C)=CCN1CCC2(C)c3cc(O)ccc3CC1C2C (stereo not drawn) [2'-hydroxy-5,9-dimethyl-2-(3"-methyl-2"-butenyl)-6,7-benzomorphan]
ED50 [4, 5]: 17.6 mg/kg
ED50 [4, 6]: 98 mg/kg

CC1C2Cc3ccc(O)cc3C1(C)CCN2CCCC(=O)c1ccc(F)cc1 (stereo not drawn) [2-[γ-(p-fluorobenzoyl)-propyl]-2'-hydroxy-5,9-dimethyl-6,7-benzomorphan]
drug addiction ([1]; U.S. Pat. No. 3,833,595): without causing drug addiction
effectiveness by route of administration ([2]; 2-[γ-(p-fluorobenzoyl)-propyl]-2'-hydroxy-5,9-dimethyl-6,7-benzomorphan): effective when administered parenterally rather than orally
analgesic activity ([2]; U.S. Pat. No. 3,833,595): significant analgesic activity

Cc1ccc2c(c1)C1(C)CCN(CCCC(=O)c3ccc(F)cc3)C(C2)C1C (stereo not drawn) [Example 1, 2-[γ-(p-Fluorobenzoyl)-propyl]-2',5,9-trimethyl-6,7-benzomorphan]
ED50 [4, 5]: 7.9 mg/kg
ED50 [4, 6]: 9.6 mg/kg
analgesic effectiveness compared with pentazocine ([4]; oral and subcutaneous administration): more effective than pentazocine
Abstinence syndrome ([3]; 40 mg/kg/day for 4 weeks): -
addictive property ([3]; as shown in Table 2): did not exhibit any addictive property

CN1CC[C@]23c4c5ccc(O)c4O[C@H]2[C@@H](O)C=C[C@H]3[C@H]1C5 [Morphine . hydrochloride, Morphine]
ED50 ([4]; po, read-out: ED50 PO): 7 mg/kg
ED50 ([4]; sc, read-out: ED50 SC): 1.6 mg/kg
